Data: ChEMBL document CHEMBL4507318, “Data for DCP probe BAY-985” (2021)

Tests used:
[1] = molecular target: Dual specificity tyrosine-phosphorylation-regulated kinase 1A (Homo sapiens) (UniProt Q13627)
[2] = molecular target: 5-hydroxytryptamine receptor 1D (Homo sapiens) (UniProt P28221); conditions: Compound concentration 10.0 uM
[3] = molecular target: Serine/threonine-protein kinase ULK2 (Homo sapiens) (UniProt Q8IYT8)
[4] = molecular target: 5-hydroxytryptamine receptor 1B (Homo sapiens) (UniProt P28222); conditions: Compound concentration 10.0 uM
[5] = test system: Phosphatidylinositol 4,5-bisphosphate 3-kinase catalytic subunit alpha isoform (Homo sapiens), P42336 [Q546K]
[6] = molecular target: 5-hydroxytryptamine receptor 2B (Homo sapiens, UniProt P41595); conditions: Compound concentration 10.0 uM
[7] = molecular target: Calcium/calmodulin-dependent protein kinase kinase 2 (Homo sapiens) (UniProt Q96RR4)
[8] = molecular target: Proto-oncogene tyrosine-protein kinase receptor Ret (Homo sapiens) (UniProt P07949)
[9] = molecular target: Mitogen-activated protein kinase kinase kinase 4 (Homo sapiens) (UniProt Q9Y6R4)
[10] = molecular target: Receptor-interacting serine/threonine-protein kinase 2 (Homo sapiens) (UniProt O43353)
[11] = molecular target: Serine/threonine-protein kinase RIO1 (Homo sapiens) (UniProt Q9BRS2)
[12] = molecular target: Cyclin-dependent kinase 3 (Homo sapiens) (UniProt Q00526)
[13] = molecular target: Mast/stem cell growth factor receptor Kit (Homo sapiens) (UniProt P10721)
[14] = molecular target: Mitogen-activated protein kinase 12 (Homo sapiens) (UniProt P53778)
[15] = molecular target: Tyrosine-protein kinase JAK1 (Homo sapiens) (UniProt P23458)
[16] = molecular target: Rhodopsin kinase GRK1 (Homo sapiens) (UniProt Q15835)
[17] = molecular target: Mitogen-activated protein kinase 7 (Homo sapiens) (UniProt Q13164)
[18] = molecular target: Protein-tyrosine kinase 6 (Homo sapiens) (UniProt Q13882)
[19] = molecular target: Cyclin-dependent kinase-like 3 (Homo sapiens) (UniProt Q8IVW4)
[20] = molecular target: Serine/threonine-protein kinase 17B (Homo sapiens) (UniProt O94768)
[21] = molecular target: Cyclin-dependent kinase 18 (Homo sapiens) (UniProt Q07002)
[22] = molecular target: Serine/threonine-protein kinase 17A (Homo sapiens) (UniProt Q9UEE5)
[23] = test system: Epidermal growth factor receptor (Homo sapiens), P00533 [UNDEFINED MUTATION]
[24] = molecular target: Mitogen-activated protein kinase kinase kinase 5 (Homo sapiens) (UniProt Q99683)
[25] = molecular target: NUAK family SNF1-like kinase 1 (Homo sapiens) (UniProt O60285)
[26] = molecular target: 5-hydroxytryptamine receptor 7 (Homo sapiens) (UniProt P34969); conditions: Compound concentration 10.0 uM
[27] = molecular target: Citron Rho-interacting kinase (Homo sapiens) (UniProt O14578)
[28] = test system: Receptor-type tyrosine-protein kinase FLT3 (Homo sapiens), P36888 [N841I]
[29] = molecular target: Tyrosine-protein kinase Fgr (Homo sapiens) (UniProt P09769)
[30] = test system: Tyrosine-protein kinase ABL1 (Homo sapiens), P00519 [E255K]
[31] = molecular target: Mitogen-activated protein kinase kinase kinase 3 (Homo sapiens) (UniProt Q99759)
[32] = molecular target: Vascular endothelial growth factor receptor 1 (Homo sapiens) (UniProt P17948)
[33] = molecular target: Serine/threonine-protein kinase TAO3 (Homo sapiens) (UniProt Q9H2K8)
[34] = molecular target: Myosin light chain kinase 2, skeletal/cardiac muscle (Homo sapiens) (UniProt Q9H1R3)
[35] = molecular target: G protein-coupled receptor kinase 4 (Homo sapiens) (UniProt P32298)
[36] = molecular target: Mu-type opioid receptor (Homo sapiens) (UniProt P35372); conditions: Compound concentration 10.0 uM
[37] = molecular target: Serine/threonine-protein kinase PRP4 homolog (Homo sapiens) (UniProt Q13523)
[38] = molecular target: Ribosomal protein S6 kinase alpha-6 (Homo sapiens) (UniProt Q9UK32)
[39] = molecular target: Cyclin-dependent kinase-like 2 (Homo sapiens) (UniProt Q92772)
[40] = molecular target: Homeodomain-interacting protein kinase 2 (Homo sapiens) (UniProt Q9H2X6)
[41] = molecular target: Serine/threonine-protein kinase PLK2 (Homo sapiens) (UniProt Q9NYY3)
[42] = molecular target: cAMP-dependent protein kinase catalytic subunit alpha (Homo sapiens) (UniProt P17612)
[43] = molecular target: Serine/threonine-protein kinase ICK (Homo sapiens) (UniProt Q9UPZ9)
[44] = molecular target: Serine/threonine-protein kinase OSR1 (Homo sapiens) (UniProt O95747)
[45] = molecular target: Protein kinase C theta type (Homo sapiens) (UniProt Q04759)
[46] = Compound concentration 1000.0 nM
[47] = Compound concentration 100.0 nM

Sequence of 5-hydroxytryptamine receptor 1D (Homo sapiens) (P28221 whole entry): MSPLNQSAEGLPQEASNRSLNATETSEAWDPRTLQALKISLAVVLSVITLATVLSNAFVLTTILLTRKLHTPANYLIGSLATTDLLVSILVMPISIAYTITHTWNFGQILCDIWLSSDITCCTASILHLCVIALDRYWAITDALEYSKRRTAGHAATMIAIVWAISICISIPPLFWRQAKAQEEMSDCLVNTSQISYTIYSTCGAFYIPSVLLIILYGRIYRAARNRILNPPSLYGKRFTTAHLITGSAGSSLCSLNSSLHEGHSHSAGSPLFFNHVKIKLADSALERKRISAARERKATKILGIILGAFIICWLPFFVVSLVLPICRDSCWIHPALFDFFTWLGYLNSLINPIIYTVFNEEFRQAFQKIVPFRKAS
Sequence of Serine/threonine-protein kinase PRP4 homolog (Homo sapiens) (Q13523 whole entry): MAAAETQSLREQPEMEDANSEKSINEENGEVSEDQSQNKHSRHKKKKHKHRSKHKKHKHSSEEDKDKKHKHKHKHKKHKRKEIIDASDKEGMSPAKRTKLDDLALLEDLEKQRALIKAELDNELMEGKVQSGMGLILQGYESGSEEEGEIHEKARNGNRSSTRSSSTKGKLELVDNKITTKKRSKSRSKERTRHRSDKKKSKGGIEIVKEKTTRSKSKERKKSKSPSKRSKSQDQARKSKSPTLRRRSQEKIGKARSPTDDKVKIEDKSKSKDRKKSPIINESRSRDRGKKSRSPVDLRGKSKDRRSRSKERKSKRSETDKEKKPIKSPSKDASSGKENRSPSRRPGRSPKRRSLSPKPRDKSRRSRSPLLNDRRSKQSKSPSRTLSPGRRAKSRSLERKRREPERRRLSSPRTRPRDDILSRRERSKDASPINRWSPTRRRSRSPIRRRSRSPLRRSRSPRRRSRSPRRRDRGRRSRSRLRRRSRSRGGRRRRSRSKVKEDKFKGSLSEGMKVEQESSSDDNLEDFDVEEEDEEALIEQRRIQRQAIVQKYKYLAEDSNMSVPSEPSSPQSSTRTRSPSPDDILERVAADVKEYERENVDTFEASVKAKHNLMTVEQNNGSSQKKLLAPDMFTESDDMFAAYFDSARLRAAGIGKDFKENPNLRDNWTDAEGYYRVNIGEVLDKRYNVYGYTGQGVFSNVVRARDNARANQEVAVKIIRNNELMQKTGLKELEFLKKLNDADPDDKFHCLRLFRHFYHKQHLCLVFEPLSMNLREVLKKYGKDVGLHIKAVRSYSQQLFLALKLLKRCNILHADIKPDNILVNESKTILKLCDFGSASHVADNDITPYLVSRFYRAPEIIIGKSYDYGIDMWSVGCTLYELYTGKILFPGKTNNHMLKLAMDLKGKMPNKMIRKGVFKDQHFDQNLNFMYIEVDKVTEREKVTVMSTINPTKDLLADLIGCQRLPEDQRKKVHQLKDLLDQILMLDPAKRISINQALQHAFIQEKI
Sequence of Serine/threonine-protein kinase TAO3 (Homo sapiens) (Q9H2K8 whole entry): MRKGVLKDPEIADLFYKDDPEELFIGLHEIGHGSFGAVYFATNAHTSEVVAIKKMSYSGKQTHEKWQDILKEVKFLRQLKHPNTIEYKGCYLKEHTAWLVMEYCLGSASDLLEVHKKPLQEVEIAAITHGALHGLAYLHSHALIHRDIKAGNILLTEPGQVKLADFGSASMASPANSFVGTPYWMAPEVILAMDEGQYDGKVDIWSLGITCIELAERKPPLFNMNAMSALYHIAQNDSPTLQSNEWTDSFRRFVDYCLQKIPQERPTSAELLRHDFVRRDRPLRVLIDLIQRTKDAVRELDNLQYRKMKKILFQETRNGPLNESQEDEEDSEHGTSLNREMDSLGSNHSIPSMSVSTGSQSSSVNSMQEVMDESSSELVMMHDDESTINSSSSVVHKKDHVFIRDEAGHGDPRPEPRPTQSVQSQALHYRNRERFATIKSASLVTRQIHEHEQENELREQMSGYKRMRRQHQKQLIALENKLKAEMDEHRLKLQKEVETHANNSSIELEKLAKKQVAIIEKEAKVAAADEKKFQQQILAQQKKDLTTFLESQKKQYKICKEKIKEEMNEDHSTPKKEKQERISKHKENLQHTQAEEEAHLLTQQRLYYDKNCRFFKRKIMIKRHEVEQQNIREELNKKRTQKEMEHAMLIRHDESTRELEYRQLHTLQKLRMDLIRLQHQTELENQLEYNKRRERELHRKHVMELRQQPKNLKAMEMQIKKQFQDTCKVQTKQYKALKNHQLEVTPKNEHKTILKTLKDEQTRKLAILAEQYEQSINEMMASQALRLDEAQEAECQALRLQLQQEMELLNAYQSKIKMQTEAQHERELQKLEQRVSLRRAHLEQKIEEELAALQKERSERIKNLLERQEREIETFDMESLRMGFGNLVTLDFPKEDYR
Sequence of Mast/stem cell growth factor receptor Kit (Homo sapiens) (P10721 whole entry): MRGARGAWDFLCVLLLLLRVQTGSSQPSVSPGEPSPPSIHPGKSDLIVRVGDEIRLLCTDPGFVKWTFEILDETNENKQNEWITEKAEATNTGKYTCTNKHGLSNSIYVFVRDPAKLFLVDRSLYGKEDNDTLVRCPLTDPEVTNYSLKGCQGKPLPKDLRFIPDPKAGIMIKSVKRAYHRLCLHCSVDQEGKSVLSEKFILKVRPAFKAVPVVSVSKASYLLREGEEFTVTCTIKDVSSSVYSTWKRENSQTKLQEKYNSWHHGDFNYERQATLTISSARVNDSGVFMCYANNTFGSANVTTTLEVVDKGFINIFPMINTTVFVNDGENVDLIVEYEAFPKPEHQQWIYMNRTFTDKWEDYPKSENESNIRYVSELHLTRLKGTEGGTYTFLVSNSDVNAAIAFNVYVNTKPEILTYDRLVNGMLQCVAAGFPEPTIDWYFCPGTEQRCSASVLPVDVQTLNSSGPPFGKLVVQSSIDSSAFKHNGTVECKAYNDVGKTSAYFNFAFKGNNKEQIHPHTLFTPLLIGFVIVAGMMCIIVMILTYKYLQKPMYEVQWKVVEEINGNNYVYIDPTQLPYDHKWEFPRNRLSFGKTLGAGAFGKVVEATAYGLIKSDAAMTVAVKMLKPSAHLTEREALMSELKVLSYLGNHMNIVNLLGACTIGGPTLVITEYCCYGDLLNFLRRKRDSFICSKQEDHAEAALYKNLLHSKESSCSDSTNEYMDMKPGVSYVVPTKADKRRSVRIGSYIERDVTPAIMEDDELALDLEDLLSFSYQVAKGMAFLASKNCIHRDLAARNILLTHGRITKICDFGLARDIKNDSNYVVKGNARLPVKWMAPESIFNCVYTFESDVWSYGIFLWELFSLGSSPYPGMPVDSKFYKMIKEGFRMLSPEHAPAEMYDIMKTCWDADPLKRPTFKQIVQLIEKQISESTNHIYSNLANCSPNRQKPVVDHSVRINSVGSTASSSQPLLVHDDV
Sequence of Proto-oncogene tyrosine-protein kinase receptor Ret (Homo sapiens) (P07949 whole entry): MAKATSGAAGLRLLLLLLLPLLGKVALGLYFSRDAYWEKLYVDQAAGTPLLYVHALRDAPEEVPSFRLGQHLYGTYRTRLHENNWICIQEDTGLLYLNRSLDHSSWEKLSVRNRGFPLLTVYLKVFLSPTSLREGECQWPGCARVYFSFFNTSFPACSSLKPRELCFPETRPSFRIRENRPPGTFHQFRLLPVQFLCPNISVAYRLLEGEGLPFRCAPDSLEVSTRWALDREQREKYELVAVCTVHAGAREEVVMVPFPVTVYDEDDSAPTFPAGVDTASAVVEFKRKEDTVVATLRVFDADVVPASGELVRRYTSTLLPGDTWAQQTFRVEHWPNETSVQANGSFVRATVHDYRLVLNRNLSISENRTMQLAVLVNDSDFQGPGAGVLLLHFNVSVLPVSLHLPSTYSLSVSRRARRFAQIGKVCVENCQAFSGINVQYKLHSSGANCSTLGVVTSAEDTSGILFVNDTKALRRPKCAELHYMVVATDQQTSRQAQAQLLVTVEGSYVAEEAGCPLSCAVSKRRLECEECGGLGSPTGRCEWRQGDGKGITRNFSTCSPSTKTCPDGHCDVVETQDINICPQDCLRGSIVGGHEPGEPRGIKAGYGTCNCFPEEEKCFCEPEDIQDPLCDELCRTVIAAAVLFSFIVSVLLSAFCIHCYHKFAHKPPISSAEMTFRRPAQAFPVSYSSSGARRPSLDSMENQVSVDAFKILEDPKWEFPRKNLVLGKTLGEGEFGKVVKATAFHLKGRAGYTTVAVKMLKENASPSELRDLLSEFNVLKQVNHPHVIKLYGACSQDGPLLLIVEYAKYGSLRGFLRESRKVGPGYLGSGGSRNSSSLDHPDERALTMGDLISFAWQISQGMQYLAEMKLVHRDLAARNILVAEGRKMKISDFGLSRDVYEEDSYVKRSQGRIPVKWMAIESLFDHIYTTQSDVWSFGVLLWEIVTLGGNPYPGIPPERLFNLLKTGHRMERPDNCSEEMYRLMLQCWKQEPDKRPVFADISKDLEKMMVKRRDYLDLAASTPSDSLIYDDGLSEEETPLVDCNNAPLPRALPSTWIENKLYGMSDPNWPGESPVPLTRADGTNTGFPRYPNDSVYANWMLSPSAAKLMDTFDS
Sequence of 5-hydroxytryptamine receptor 7 (Homo sapiens) (P34969 whole entry): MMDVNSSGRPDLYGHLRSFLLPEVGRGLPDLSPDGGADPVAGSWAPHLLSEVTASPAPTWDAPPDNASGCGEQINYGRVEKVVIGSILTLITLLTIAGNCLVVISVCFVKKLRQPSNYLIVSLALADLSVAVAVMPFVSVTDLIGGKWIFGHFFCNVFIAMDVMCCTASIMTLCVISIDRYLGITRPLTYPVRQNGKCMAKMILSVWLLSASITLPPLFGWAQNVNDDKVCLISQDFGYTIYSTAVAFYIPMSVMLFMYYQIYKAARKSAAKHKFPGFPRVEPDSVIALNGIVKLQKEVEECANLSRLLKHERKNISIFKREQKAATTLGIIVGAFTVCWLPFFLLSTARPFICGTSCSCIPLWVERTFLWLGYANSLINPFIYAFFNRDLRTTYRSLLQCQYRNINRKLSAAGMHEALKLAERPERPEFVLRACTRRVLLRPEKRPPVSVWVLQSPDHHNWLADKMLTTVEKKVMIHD

CN(C)c1ncnc(-c2ccc3nc(Nc4cc(CN5CCN(C(=O)CC(F)(F)F)CC5)ccn4)[nH]c3c2)c1Cl [BAY-440]
residual activity [1, 46]: 77% | inhibition [2]: 19.5% | residual activity [3, 46]: 64% | inhibition [4]: 6.15% | residual activity [5, 46]: 30% | inhibition [6]: 39% | residual activity [7, 46]: 88% | residual activity [8, 46]: 77% | residual activity [9, 46]: 100% | residual activity [10, 46]: 37% | residual activity [11, 46]: 100% | residual activity [12, 46]: 86% | residual activity [13, 46]: 96% | residual activity [14, 46]: 68% | residual activity [15, 46]: 68% | residual activity [16, 46]: 90% | residual activity [17, 46]: 91% | residual activity [18, 46]: 86% | residual activity [19, 46]: 86% | residual activity [20, 46]: 52% | residual activity [21, 46]: 100% | residual activity [22, 46]: 34% | residual activity [23, 46]: 100% | residual activity [24, 46]: 100% | residual activity [25, 46]: 100% | inhibition [26]: 13.4% | residual activity [27, 46]: 100% | residual activity [28, 46]: 53% | residual activity [29, 46]: 98% | residual activity [30, 46]: 49% | residual activity [31, 46]: 50% | residual activity [32, 46]: 100% | residual activity [33, 46]: 33% | residual activity [34, 46]: 100% | residual activity [35, 46]: 100% | inhibition [36]: 14.1% | residual activity [37, 46]: 100% | residual activity [38, 46]: 84% | residual activity [39, 46]: 100% | residual activity [40, 46]: 86% | residual activity [41, 46]: 100% | residual activity [42, 46]: 100% | residual activity [43, 46]: 100% | residual activity [44, 46]: 94% | residual activity [45, 46]: 100%

C[C@H](c1ccnc(Nc2nc3ccc(-c4cc(N(C)C)ncn4)cc3[nH]2)c1)N1CCN(C(=O)CC(F)(F)F)CC1 [BAY-985]
residual activity [1, 47]: 98% | inhibition [2]: 23.2% | residual activity [3, 47]: 100% | inhibition [4]: 11.5% | residual activity [5, 47]: 45% | inhibition [6]: 60% | residual activity [7, 47]: 77% | residual activity [8, 47]: 100% | residual activity [9, 47]: 96% | residual activity [10, 47]: 71% | residual activity [11, 47]: 100% | residual activity [12, 47]: 100% | residual activity [13, 47]: 100% | residual activity [14, 47]: 95% | residual activity [15, 47]: 100% | residual activity [16, 47]: 90% | residual activity [17, 47]: 100% | residual activity [18, 47]: 85% | residual activity [19, 47]: 86% | residual activity [20, 47]: 100% | residual activity [21, 47]: 89% | residual activity [22, 47]: 40% | residual activity [23, 47]: 89% | residual activity [24, 47]: 100% | residual activity [25, 47]: 93% | inhibition [26]: 16.6% | residual activity [27, 47]: 78% | residual activity [28, 47]: 43% | residual activity [29, 47]: 85% | residual activity [30, 47]: 97% | residual activity [31, 47]: 100% | residual activity [32, 47]: 100% | residual activity [33, 47]: 41% | residual activity [34, 47]: 92% | residual activity [35, 47]: 100% | inhibition [36]: 26% | residual activity [37, 47]: 80% | residual activity [38, 47]: 97% | residual activity [39, 47]: 100% | residual activity [40, 47]: 100% | residual activity [41, 47]: 100% | residual activity [42, 47]: 100% | residual activity [43, 47]: 88% | residual activity [44, 47]: 100% | residual activity [45, 47]: 100%
